According to patent US11613542B2, “Sulfonylureas and sulfonylthioureas as NLRP3 inhibitors” (Inflazome Limited, priority 2017, dated 2023):
Counter-ions that a name gives are not always drawn.

Key:
NLRP3 [1] = molecular target: T1, NLRP3 (Homo sapiens, UniProt Q96P20); assay: THP-1 cells pyroptosis assay; assay type: cell-based; design: Seed THP-1 cells (25,000 cells/well) containing 1.0 μg/ml LPS; host or cells: THP-1 cells, LPS-primed, nigericin-stimulated; details: THP-1 cells, 1.0 μg/ml LPS, compound 3 hrs, nigericin 5 μM 1 hr, resazurin readout; read-out: THP IC50
From the text: NLRP and Pyroptosis It is well established that the activation of NLRP3 leads to cell pyroptosis and this feature plays an important part in the manifestation of clinical disease (Yan-gang Liu et al., Cell Death &Disease, 2017, 8(2), e2579; Alexander Wree et al., Hepatology, 2014, 59(3), 898-910; Alex Baldwin et al., Journal of Medicinal Chemistry, 2016, 59(5), 1691-171; Ema Ozaki et al., Journal of Inflammation Research, 2015, 8, 15-27; Zhen Xie & Gang Zhao, Neuroimmunology Neuroinflammation, 2014, 1(2), 60-65; Mattia Cocco et al., Journal of Medicinal Chemistry, 2014, 57(24), 10366-10382; T. Satoh et al., Cell Death &Disease, 2013, 4, e644). Therefore, it is anticipated that inhibitors of NLRP3 will block pyroptosis, as well as the release of pro-inflammatory cytokines (e.g. […]) from the cell. THP-1 Cells: Culture and Preparation THP-1 cells (ATCC #TIB-202) were grown in RPMI containing L-glutamine (Gibco #11835) supplemented with imM sodium pyruvate (Sigma #S8636) and penicillin (100 units/ml)/streptomycin (0.1 mg/ml) (Sigma #P4333) in 10% Fetal Bovine Serum (FBS) (Sigma #Fo804). The cells were routinely passaged and grown to confluency (˜10^6 cells/ml). On the day of the experiment, THP-1 cells were harvested and resuspended into RPMI medium (without FBS). The cells were then counted and viability (>90%) checked by Trypan blue (Sigma #T8154). Appropriate dilutions were made to give a concentration of 625,000 cells/ml. To this diluted cell solution was added LPS (Sigma #L4524) to give a […] Final Assay Concentration (FAC). 40 μl of the final preparation was aliquoted into each well of a 96-well plate. The plate thus prepared was used for compound screening. THP-1 Cells Pyroptosis Assay The following method step-by-step assay was followed for compound screening. • 1. Seed THP-1 cells (25,000 cells/well) containing 1.0 μg/ml LPS in 40 μl of RPMI medium (without FBS) in 96-well, black walled, clear bottom cell culture plates coated with poly-D-lysine (VWR #734-0317) • 2. Add […] compound (8 points half-log dilution, with 10 μM top dose) or vehicle (DMSO 0.1% FAC) to the appropriate wells • 3. […] Add 5 μl nigericin (Sigma #N7143) (FAC 5 μM) to all wells • 5. […] At the end of the incubation period, spin plates at 300 xg for 3 mins and remove supernatant • 7. Then add 50 μl of resazurin (Sigma #R7017) (FAC 100μ M resazurin in RPMI medium without FBS) and incubate plates for a further 1-2 hrs at 37° C. and 5% CO2 • 8. Plates were read in an Envision reader at Ex 560 nm and Em 590 nm • 9. IC50 data is fitted to a non-linear regression equation (log inhibitor vs response-variable slope 4-parameters) [table]

NLRP3 [2] = molecular target: T1, NLRP3; assay: Human whole blood IL1β release assay; assay type: cell-based; design: Human whole blood in Li-heparin tubes was obtained from healthy donors; from tissue; host or cells: human whole blood from healthy donors, LPS-primed, nigericin-stimulated; details: human whole blood, 1 μg/ml LPS, compound 3 hrs, nigericin 10 μM 1 hr, IL-1β AlphaLisa; read-out: HWB IC50
Method: Human Whole Blood IL1β Release Assay
For systemic delivery, the ability to inhibit NLRP3 when the compounds are present within the bloodstream is of great importance. For this reason, the NLRP3 inhibitory activity of a number of compounds in human whole blood was investigated in accordance with the following protocol.
Human whole blood in Li-heparin tubes was obtained from healthy donors from a volunteer donor panel. • 1. Plate out 80 μl of whole blood containing 1 μg/ml of LPS in 96-well, clear bottom cell culture plate (Corning #3585) • 2. Add 10 μl compound (8 points half-log dilution with 10 μM top dose) or vehicle (DMSO 0.1% FAC) to the appropriate wells • 3. Incubate for 3 hrs at 37° C., 5% CO2 • 4. Add 10 μl Nigericin (Sigma #N7143) (10 μM FAC) to all wells • 5. Incubate for 1 hr at 37° C., 5% CO2 • 6. At the end of the incubation period, spin plates at 300 xg for 5 mins to pellet cells and remove 20 μl of supernatant and add to 96-well v-bottom plates for IL-1β analysis (note: these plates containing the supernatants can be stored at −80° C. to be analysed at a later date) • 7. IL-1β was measured according to the manufacturer protocol (Perkin Elmer-AlphaLisa IL-1 Kit AL220F-5000) • 8. IC50 data is fitted to a non-linear regression equation (log inhibitor vs response-variable slope 4-parameters)

[3] = Pharmacokinetic parameters in male Sprague Dawley rats (intravenous and oral administration); assay type: in vivo; details: intravenous administration, rat plasma; dose per compound (mg/kg)
Method: Pharmacokinetic parameters were determined in male Sprague Dawley rats (Charles River, UK, 250-350 g; or Vital River Laboratory Animal Technology Co Ltd, Beijing, China, 7-9 weeks old). Animals were individually housed during the study and maintained under a 12 h light/dark cycle. Animals had free access to food and water except that some orally dosed animals were food deprived overnight prior to the study.
For intravenous administration, compounds were formulated as a solution in water or DMSO:PBS [10:90] in 2 mL/kg dosing volume and administered via tail vein. For oral administration, compounds were formulated as a solution in water or DMSO:water [10:90] in 5 mL/kg dosing volume and administered orally.
Serial blood samples (about 120-300 μL) were taken from each animal at each of 8 time-points post dose (0.083, 0.25, 0.5, 1, 2, 4, 8 and 24 h) or at each of 12 time-points post dose (0.03, 0.1, 0.17, 0.25, 0.5, 1, 2, 4, 6, 8,12 and 24 h) or pre-dose and at each of 9 time-points post dose (0.25, 0.5, 1, 2, 4, 6, 8, 12 and 24 h). Samples were held on ice for no longer than 30 minutes before centrifugation (10,000 rpm (8,385 g) for 3 minutes; or 5,696 rpm (3,000 g) for 15 minutes) for plasma generation. Plasma was frozen on dry ice prior to bioanalysis. PK parameters were generated from LC-MS/MS data using Dotmatics or Phoenix WinNonlin 6.3 software.

T1 sequence (Q96P20 whole entry): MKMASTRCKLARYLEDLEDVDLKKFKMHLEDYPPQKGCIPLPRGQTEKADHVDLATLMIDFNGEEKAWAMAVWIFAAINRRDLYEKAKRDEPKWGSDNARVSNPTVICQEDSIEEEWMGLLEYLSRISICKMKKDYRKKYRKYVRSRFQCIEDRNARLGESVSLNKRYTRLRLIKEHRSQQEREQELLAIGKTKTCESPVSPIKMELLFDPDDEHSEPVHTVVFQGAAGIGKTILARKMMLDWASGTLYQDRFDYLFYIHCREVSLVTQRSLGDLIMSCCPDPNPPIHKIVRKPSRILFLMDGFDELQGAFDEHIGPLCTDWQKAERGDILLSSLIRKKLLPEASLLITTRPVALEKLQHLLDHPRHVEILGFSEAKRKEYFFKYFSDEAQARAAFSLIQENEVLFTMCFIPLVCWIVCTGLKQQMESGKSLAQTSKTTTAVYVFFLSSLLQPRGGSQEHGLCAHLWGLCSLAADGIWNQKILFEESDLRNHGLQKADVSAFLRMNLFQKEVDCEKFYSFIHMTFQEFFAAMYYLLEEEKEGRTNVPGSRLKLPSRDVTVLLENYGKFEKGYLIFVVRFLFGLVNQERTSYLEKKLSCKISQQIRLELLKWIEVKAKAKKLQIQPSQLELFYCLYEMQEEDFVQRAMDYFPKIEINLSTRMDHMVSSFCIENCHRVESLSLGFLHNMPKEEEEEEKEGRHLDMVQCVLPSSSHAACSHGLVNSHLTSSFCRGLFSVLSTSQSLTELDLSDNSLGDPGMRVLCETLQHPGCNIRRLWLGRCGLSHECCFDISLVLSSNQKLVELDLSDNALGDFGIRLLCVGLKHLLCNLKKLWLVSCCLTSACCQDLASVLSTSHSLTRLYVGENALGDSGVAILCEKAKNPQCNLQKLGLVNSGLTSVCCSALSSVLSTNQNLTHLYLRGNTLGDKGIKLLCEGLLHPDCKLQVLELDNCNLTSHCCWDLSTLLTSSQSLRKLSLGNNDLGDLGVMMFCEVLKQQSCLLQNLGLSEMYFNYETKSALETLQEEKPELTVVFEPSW

IC50 (NLRP3 [1]) | IC50 (NLRP3 [2]) | SMILES | also measured
< 160 nM | < 400 nM | CN(C)CC(C)(C)n1ccc(S(=O)(=O)NC(=O)Nc2c(-c3ccnc(OC4CC4)c3)ccc3c2CCO3)n1 [Example 192, N-((5-(2-Cyclopropoxypyridin-4-yl)-2,3-dihydrobenzofuran-4-yl)carbamoyl)-1-(1-(dimethylamino)-2-methylpropan-2-yl)-1H-pyrazole-3-sulfonamide, sodium salt] | 
< 160 nM | < 800 nM | CC(=O)N(C)Cc1cc(S(=O)(=O)NC(=O)Nc2c3c(cc4c2CCC4)CCC3)nn1C(C)C [Example 129, N-((3-(N-((1,2,3,5,6,7-Hexahydro-s-indacen-4-yl)carbamoyl)sulfamoyl)-1-isopropyl-1H-pyrazol-5-yl)methyl)-N-methylacetamide] | 
< 160 nM | < 10000 nM | O=C(Nc1c2c(cc3c1CCC3)CCC2)NS(=O)(=O)c1ccn(Cc2ncco2)n1 [Example 35, N-((1,2,3,5,6,7-Hexahydro-s-indacen-4-yl)carbamoyl)-1-(oxazol-2-ylmethyl)-1H-pyrazole-3-sulfonamide] | 
< 640 nM | < 400 nM | CC(C)c1cccc(C(C)C)c1NC(=O)NS(=O)(=O)c1cc(C(=O)N2CCC2)n(C)n1 [Example 151, 5-(Azetidine-1-carbonyl)-N-((2,6-diisopropylphenyl)carbamoyl)-1-methyl-1H-pyrazole-3-sulfonamide] | 
< 160 nM | < 800 nM | C[C@@H](Cn1ccc(S(=O)(=O)NC(=O)Nc2c3c(cc4c2CCC4)CCC3)n1)N(C)C [Example 18, (S)-1-(2-(Dimethylamino)propyl)-N-((1,2,3,5,6,7-hexahydro-s-indacen-4-yl)carbamoyl)-1H-pyrazole-3-sulfonamide] | 
< 160 nM | < 1600 nM | CC(C)(C#N)n1ccc(S(=O)(=O)NC(=O)Nc2c3c(cc4c2CCC4)CCC3)n1 [Example 33, 1-(2-Cyanopropan-2-yl)-N-((1,2,3,5,6,7-hexahydro-s-indacen-4-yl)carbamoyl)-1H-pyrazole-3-sulfonamide] | 
< 2560 nM | < 3200 nM | CN(C)CCn1cnc(S(=O)(=O)NC(=O)Nc2c3c(cc4c2CCC4)CCC3)c1 [Example 23, 1-(2-(Dimethylamino)ethyl)-N-((1,2,3,5,6,7-hexahydro-s-indacen-4-yl)carbamoyl)-1H-imidazole-4-sulfonamide] | 
< 40 nM | < 1600 nM | CN1CCC(n2ccc(S(=O)(=O)NC(=O)Nc3c4c(cc5c3CCC5)CCC4)n2)C1 (stereo not shown) [Example 205, N-((1,2,3,5,6,7-Hexahydro-s-indacen-4-yl)carbamoyl)-1-(1-methylpyrrolidin-3-yl)-1H-pyrazole-3-sulfonamide, sodium salt] | 
< 640 nM | < 800 nM | CN(C)CCn1cnc(S(=O)(=O)NC(=O)Nc2c3c(cc4c2CCC4)CCC3)n1 [Example 27, 1-(2-(Dimethylamino)ethyl)-N-((1,2,3,5,6,7-hexahydro-s-indacen-4-yl)carbamoyl)-1H-1,2,4-triazole-3-sulfonamide] | 
< 160 nM | < 800 nM | CN(C)CCn1ccc(S(=O)(=O)NC(=O)Nc2c3c(cc4c2CCC4)CC=C3)n1 [Example 181, 1-(2-(Dimethylamino)ethyl)-N-((1,2,3,7-tetrahydro-s-indacen-4-yl)carbamoyl)-1H-pyrazole-3-sulfonamide, potassium salt] | 
< 160 nM | < 1600 nM | CN(C)CC(C)(C)n1cc(S(=O)(=O)NC(=O)Nc2c3c(cc4c2CCC4)CCC3)cn1 [Example 183, 1-(1-(Dimethylamino)-2-methylpropan-2-yl)-N-((1,2,3,5,6,7-hexahydro-s-indacen-4-yl)carbamoyl)-1H-pyrazole-4-sulfonamide] | 
< 160 nM |  | CN(CCO)Cc1cc(S(=O)(=O)NC(=O)Nc2c3c(cc4c2CCC4)CCC3)nn1C [Example 124, N-((1,2,3,5,6,7-Hexahydro-s-indacen-4-yl)carbamoyl)-5-(((2-hydroxyethyl)(methyl)amino)methyl)-1-methyl-1H-pyrazole-3-sulfonamide] | AUC [3]: 2067.0 ng·h/mL; Cl [3]: 8.1 mL/min/kg; T1/2 [3]: 14.2 h; Vdss [3]: 1.9 L/kg
< 10000 nM |  | COCCNC(=O)c1cc(S(=O)(=O)NC(=O)Nc2c3c(cc4c2CCC4)CCC3)nn1C [Example 175, 3-(N-((1,2,3,5,6,7-Hexahydro-s-indacen-4-yl)carbamoyl)sulfamoyl)-N-(2-methoxyethyl)-1-methyl-1H-pyrazole-5-carboxamide, partial ammonium salt] | 
< 10000 nM |  | CC(C)NC(=O)c1cc(S(=O)(=O)NC(=O)Nc2c3c(cc4c2CCC4)CCC3)nn1C [Example 146, 3-(N-((1,2,3,5,6,7-Hexahydro-s-indacen-4-yl)carbamoyl)sulfamoyl)-N-isopropyl-1-methyl-1H-pyrazole-5-carboxamide] | 
< 2560 nM |  | CC(C)c1cc(F)cc(C(C)C)c1NC(=O)NS(=O)(=O)c1ccn(C(C)(C)CN(C)C)n1 [Example 201, 1-(1-(Dimethylamino)-2-methylpropan-2-yl)-N-((4-fluoro-2,6-diisopropylphenyl)carbamoyl)-1H-pyrazole-3-sulfonamide] | 
< 2560 nM |  | CC(=O)N1CC(n2ccc(S(=O)(=O)NC(=O)Nc3c4c(cc5c3CCC5)CCC4)n2)C1 [Example 4, 1-(1-Acetylazetidin-3-yl)-N-((1,2,3,5,6,7-hexahydro-s-indacen-4-yl)carbamoyl)-1H-pyrazole-3-sulfonamide] | 
